Measurements reported in ChEMBL document CHEMBL1177823, “7',8'-Dihydroobolactone, a typanocidal alpha-pyrone from the rainforest tree Cryptocarya obovata” (Bioorg Med Chem Lett, 2010).
pIC50: −log10 of the molar value. Blank lines part the entries; values can stand above or below the compound they belong to.

Legend:
[1] = tested on: Trypanosoma brucei brucei; test: Antitrypanosomal activity against Trypanosoma brucei brucei; type: functional, organism-based
A549 = test: Cytotoxicity against human A549 cells after 72 hrs by Alamar blue assay; type: functional, cell-based; conditions: A549, 72 h
[2] = Selectivity index, ratio of IC50 for HEK293 cells to IC50 for Trypanosoma brucei brucei; type: toxicity, cell-based; conditions: human, HEK293 cells versus Trypanosoma brucei brucei; read-out: Selectivity Index
HEK293 = test: Cytotoxicity against […] cells after 72 hrs by Alamar blue assay; type: cell-based; conditions: Homo sapiens, HEK293, 72 h
MCF7 = test: Cytotoxicity against human MCF7 cells after 72 hrs by Alamar blue assay; type: functional, cell-based; conditions: MCF7, 72 h
HeLa = test: Cytotoxicity against human HeLa cells after 72 hrs by Alamar blue assay; type: functional, cell-based
[3] = tested on: Trypanosoma brucei brucei; test: Antitrypanosomal activity against Trypanosoma brucei brucei at 167 uM; type: functional
[4] = Cytotoxicity against […] cells at 70 uM after 72 hrs by Alamar blue assay; type: cell-based; conditions: human, HEK293 cells; read-out: INH

SMILES: O=C1C=C(/C=C/c2ccccc2)O[C@H](C[C@H]2CC=CC(=O)O2)C1 [OBOLACTONE]
pIC50 [1]: 5.28
pIC50 (A549): 4.37
selectivity ratio [2]: 2.5
pIC50 (HEK293): 4.88
pIC50 (MCF7): 4.49
pIC50 (HeLa): 4.62

SMILES: O=C1C=C(CCc2ccccc2)O[C@H](C[C@H]2CC=CC(=O)O2)C1
pIC50 [1]: 5.55
pIC50 (A549): 4.11
selectivity ratio [2]: 7.4
pIC50 (HEK293): 4.69
pIC50 (HeLa): 4.37

SMILES: O=c1ccc2cc3ccoc3cc2o1 [PSORALEN]
inhibition at 167 µM [3]: 50.3%
pIC50 (HEK293): < 3.78

SMILES: N=C(N)c1ccc(/N=N/Nc2ccc(C(=N)N)cc2)cc1 [DIMINAZENE]
pIC50 [1]: 7.60
pIC50 (HEK293): < 4.10

Second part, led by results:

pIC50 [1]: 7.43
SMILES: COc1ccc(C[C@H](N)C(=O)N[C@H]2[C@@H](O)[C@H](n3cnc4c(N(C)C)ncnc43)O[C@@H]2CO)cc1 [PUROMYCIN]
pIC50 (HEK293): 6.38

pIC50 [1]: 8.15
SMILES: N=C(N)c1ccc(OCCCCCOc2ccc(C(=N)N)cc2)cc1 [PENTAMIDINE]
cytotoxicity at 72 h, 70 µM [4]: 58.3%
